Assay: mn = molality of the nth substance listed, in mol/kg
Conditions: Liquid, Capillary tube (Ostwald / Ubbelohde) method

O=[N+]([O-])[O-].O=[N+]([O-])[O-].[Ni+2] [nickel(II) nitrate] + O
viscosity [mPa·s]
Conditions | 100 kPa | 10000 kPa | 20000 kPa | 30000 kPa
297.86 K, m1 = 1.824 | 1.671 | 1.672 | 1.672 | 1.673
297.86 K, m1 = 2.246 | 1.973 | 1.973 | 1.974 | 1.974
297.98 K, m1 = 0.608 | 1.078 | 1.077 | 1.077 | 1.078
298.43 K, m1 = 0.218 | 0.9454 | 0.9468 | 0.9471 | 0.9482
298.64 K, m1 = 0.951 | 1.193 | 1.194 | 1.194 | 1.194
298.65 K, m1 = 0.153 | 0.9231 | 0.9246 | 0.9251 | 0.9261
298.65 K, m1 = 0.288 | 0.9601 | 0.9606 | 0.961 | 0.962
299.24 K, m1 = 0.05 | 0.884 | 0.8839 | 0.8843 | 0.8845
299.76 K, m1 = 1.368 | 1.348 | 1.348 | 1.349 | 1.35
309.84 K, m1 = 2.246 | 1.537 | 1.539 | 1.542 | 1.545
321.54 K, m1 = 0.05 | 0.5771 | 0.579 | 0.5797 | 0.582
322.46 K, m1 = 2.246 | 1.225 | 1.231 | 1.236 | 1.241
322.56 K, m1 = 0.153 | 0.5821 | 0.5872 | 0.592 | 0.5938
322.56 K, m1 = 0.288 | 0.6103 | 0.6122 | 0.613 | 0.6145
323.46 K, m1 = 0.608 | 0.6691 | 0.6724 | 0.6754 | 0.6781
323.67 K, m1 = 0.951 | 0.7503 | 0.7533 | 0.7564 | 0.7595
323.74 K, m1 = 0.218 | 0.5854 | 0.5895 | 0.5944 | 0.5968
324.76 K, m1 = 1.824 | 1.026 | 1.031 | 1.036 | 1.04
326.78 K, m1 = 1.368 | 0.8295 | 0.8341 | 0.8376 | 0.8422
330.84 K, m1 = 2.246 | 1.072 | 1.078 | 1.082 | 1.089
338.46 K, m1 = 1.368 | 0.703 | 0.7074 | 0.7123 | 0.7174
347.43 K, m1 = 0.288 | 0.4289 | 0.4346 | 0.4376 | 0.4422
347.65 K, m1 = 0.05 | 0.3939 | 0.3949 | 0.3964 | 0.4013
347.82 K, m1 = 2.246 | 0.843 | 0.8486 | 0.8534 | 0.8621
347.94 K, m1 = 0.218 | 0.4152 | 0.4194 | 0.4228 | 0.426
348.89 K, m1 = 0.153 | 0.401 | 0.4057 | 0.4091 | 0.4122
349.46 K, m1 = 0.951 | 0.5292 | 0.5331 | 0.5374 | 0.5411
349.76 K, m1 = 0.608 | 0.4664 | 0.4708 | 0.4742 | 0.4779
349.76 K, m1 = 1.368 | 0.6103 | 0.6146 | 0.6194 | 0.6253
349.76 K, m1 = 1.824 | 0.722 | 0.728 | 0.7335 | 0.738
364.21 K, m1 = 2.246 | 0.6918 | 0.698 | 0.705 | 0.7104
372.46 K, m1 = 0.153 | 0.3059 | 0.3101 | 0.314 | 0.3166
372.48 K, m1 = 0.218 | 0.3134 | 0.3179 | 0.3212 | 0.3248
372.49 K, m1 = 1.368 | – | 0.4771 | 0.4824 | 0.4869
372.54 K, m1 = 0.05 | 0.2921 | 0.2949 | 0.2984 | 0.3015
372.84 K, m1 = 1.824 | 0.5558 | 0.5612 | 0.5672 | 0.5721
373.06 K, m1 = 0.288 | – | 0.3246 | 0.3275 | 0.3318
373.82 K, m1 = 0.608 | – | 0.36 | 0.3643 | 0.3681
375.48 K, m1 = 2.246 | – | 0.619 | 0.6251 | 0.6322
375.81 K, m1 = 0.951 | 0.395 | 0.399 | 0.4042 | 0.407
394.58 K, m1 = 2.246 | – | 0.5162 | 0.5211 | 0.5279
394.68 K, m1 = 0.05 | – | 0.2391 | 0.2416 | 0.2449
396.43 K, m1 = 0.951 | – | 0.3329 | 0.3365 | 0.3403
397.82 K, m1 = 0.153 | – | 0.2441 | 0.2474 | 0.2509
398.42 K, m1 = 0.288 | – | 0.2566 | 0.2608 | 0.2633
398.49 K, m1 = 0.608 | – | 0.289 | 0.293 | 0.2967
398.61 K, m1 = 0.218 | – | 0.249 | 0.2532 | 0.2549
399.46 K, m1 = 1.368 | – | 0.3743 | 0.3789 | 0.384
399.46 K, m1 = 1.824 | – | 0.4393 | 0.4445 | 0.4496
412.58 K, m1 = 2.246 | – | 0.4452 | 0.4505 | 0.4568
416.89 K, m1 = 1.368 | – | 0.327 | 0.3311 | 0.3363
421.95 K, m1 = 0.05 | – | 0.1929 | 0.1958 | 0.1985
422.49 K, m1 = 1.824 | – | 0.3682 | 0.3726 | 0.378
422.81 K, m1 = 0.288 | – | 0.2142 | 0.2168 | 0.2198
422.83 K, m1 = 0.951 | – | 0.2731 | 0.2767 | 0.2807
423.73 K, m1 = 0.608 | – | 0.2402 | 0.2435 | 0.2468
424.57 K, m1 = 0.153 | – | 0.1989 | 0.203 | 0.205
424.57 K, m1 = 0.218 | – | 0.2053 | 0.2081 | 0.2119
426.84 K, m1 = 2.246 | – | 0.4007 | 0.4063 | 0.4124
426.89 K, m1 = 1.368 | – | 0.3051 | 0.3095 | 0.3134
446.79 K, m1 = 2.246 | – | 0.3515 | 0.3578 | 0.3622
447.26 K, m1 = 1.368 | – | 0.2684 | 0.2714 | 0.276
448.24 K, m1 = 1.824 | – | 0.3116 | 0.3159 | 0.3211
448.96 K, m1 = 0.288 | – | 0.1818 | 0.1845 | 0.1878
449.28 K, m1 = 0.153 | – | 0.1703 | 0.1741 | 0.1764
449.46 K, m1 = 0.608 | – | 0.205 | 0.2085 | 0.2114
449.48 K, m1 = 0.951 | – | 0.2309 | 0.2347 | 0.2382
449.65 K, m1 = 0.05 | – | 0.1611 | 0.1639 | 0.1661
449.72 K, m1 = 0.218 | – | 0.175 | 0.1778 | 0.1807
471.51 K, m1 = 0.153 | – | 0.151 | 0.1534 | 0.1565
472.15 K, m1 = 0.05 | – | 0.142 | 0.1447 | 0.1468
472.46 K, m1 = 2.246 | – | 0.304 | 0.3094 | 0.314
473.12 K, m1 = 1.824 | – | 0.2716 | 0.2768 | 0.2808
473.87 K, m1 = 0.288 | – | 0.1591 | 0.1628 | 0.1645
474.24 K, m1 = 0.218 | – | 0.1536 | 0.156 | 0.1592
474.83 K, m1 = 0.608 | – | 0.1805 | 0.1834 | 0.186
475.84 K, m1 = 1.368 | – | 0.23 | 0.2342 | 0.2375

From the NIST ThermoML archive (doi:10.1016/j.jct.2005.04.017)
